Source: paper PMC7736581, “Activation of the IRE1 RNase through remodeling of the kinase front pocket by ATP-competitive ligands” (Nature Communications, 2020)

Columns and labels:
Test in all cases: biochemical
Design in all cases: Invitrogen kinase panel: Z'Lyte activity (ATP at Km) or LanthaScreen competitive ATP-site binding, percent inhibition
CLK2 = CLK2 (Homo sapiens, UniProt P49760)
TrkB = target: T1, TrkB (Homo sapiens, UniProt Q16620)
T1 construct: gene NTRK2

IGF1R = IGF1R (Homo sapiens, UniProt P08069)
MST2 = target: T2, MST2 (Homo sapiens, UniProt Q13188)
T2 construct: gene STK3

PDK1(direct) = target: T3, PDK1(direct) (Homo sapiens, UniProt O15530)
T3 construct: gene PDPK1; direct

CK1_gamma2 = target: T4, CK1_gamma2 (Homo sapiens, UniProt P78368)
T4 construct: gene CSNK1G2

PKC_delta = target: T5, PKC_delta (Homo sapiens, UniProt Q05655)
T5 construct: gene PRKCD
T5 sequence (Q05655 whole entry): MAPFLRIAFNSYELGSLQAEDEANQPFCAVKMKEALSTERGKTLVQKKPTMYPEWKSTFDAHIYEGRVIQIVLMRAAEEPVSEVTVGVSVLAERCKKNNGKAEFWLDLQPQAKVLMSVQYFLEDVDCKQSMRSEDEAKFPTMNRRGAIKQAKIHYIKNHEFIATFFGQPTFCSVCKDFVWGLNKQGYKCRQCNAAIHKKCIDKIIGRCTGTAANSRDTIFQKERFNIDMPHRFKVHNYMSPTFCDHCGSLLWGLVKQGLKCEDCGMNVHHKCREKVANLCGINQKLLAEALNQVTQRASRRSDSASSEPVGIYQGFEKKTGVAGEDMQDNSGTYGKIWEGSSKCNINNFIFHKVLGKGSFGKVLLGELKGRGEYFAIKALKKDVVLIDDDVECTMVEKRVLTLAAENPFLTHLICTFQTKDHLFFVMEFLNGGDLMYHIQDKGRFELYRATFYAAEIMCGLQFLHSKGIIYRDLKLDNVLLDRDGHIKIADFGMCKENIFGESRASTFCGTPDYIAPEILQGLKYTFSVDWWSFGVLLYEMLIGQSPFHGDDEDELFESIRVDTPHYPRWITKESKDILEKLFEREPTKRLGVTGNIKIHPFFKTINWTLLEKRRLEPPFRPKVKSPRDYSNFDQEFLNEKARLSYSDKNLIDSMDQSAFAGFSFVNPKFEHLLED

IRR = target: T6, IRR (Homo sapiens, UniProt P14616)
T6 construct: gene INSRR

CAMKK1 = CAMKK1 (Homo sapiens, UniProt Q8N5S9)
EphB3 = EphB3 (Homo sapiens, UniProt P54753)
SRPK1 = SRPK1 (Homo sapiens, UniProt Q96SB4)
Chain of SRPK1 (Q96SB4 whole entry): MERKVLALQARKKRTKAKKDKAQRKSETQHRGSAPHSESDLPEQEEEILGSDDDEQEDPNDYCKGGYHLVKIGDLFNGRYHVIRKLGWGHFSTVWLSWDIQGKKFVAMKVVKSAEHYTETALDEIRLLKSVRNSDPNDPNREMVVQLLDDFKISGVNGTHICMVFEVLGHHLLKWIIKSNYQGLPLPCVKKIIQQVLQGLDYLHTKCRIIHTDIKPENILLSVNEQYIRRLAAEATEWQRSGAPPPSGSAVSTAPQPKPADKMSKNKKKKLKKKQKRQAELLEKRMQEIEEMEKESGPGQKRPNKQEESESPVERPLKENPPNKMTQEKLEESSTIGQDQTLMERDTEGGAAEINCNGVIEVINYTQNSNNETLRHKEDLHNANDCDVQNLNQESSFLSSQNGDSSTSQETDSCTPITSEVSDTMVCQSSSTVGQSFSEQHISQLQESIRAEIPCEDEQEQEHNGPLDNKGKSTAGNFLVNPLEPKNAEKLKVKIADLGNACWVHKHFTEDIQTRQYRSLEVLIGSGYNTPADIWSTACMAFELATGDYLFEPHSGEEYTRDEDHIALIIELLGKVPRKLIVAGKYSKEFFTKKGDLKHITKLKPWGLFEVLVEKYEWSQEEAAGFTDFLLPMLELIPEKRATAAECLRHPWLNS

HIPK2 = HIPK2 (Homo sapiens, UniProt Q9H2X6)
PDGFR_alpha = target: T7, PDGFR_alpha (Homo sapiens, UniProt P16234)
T7 construct: gene PDGFRA
T7 sequence (P16234 whole entry): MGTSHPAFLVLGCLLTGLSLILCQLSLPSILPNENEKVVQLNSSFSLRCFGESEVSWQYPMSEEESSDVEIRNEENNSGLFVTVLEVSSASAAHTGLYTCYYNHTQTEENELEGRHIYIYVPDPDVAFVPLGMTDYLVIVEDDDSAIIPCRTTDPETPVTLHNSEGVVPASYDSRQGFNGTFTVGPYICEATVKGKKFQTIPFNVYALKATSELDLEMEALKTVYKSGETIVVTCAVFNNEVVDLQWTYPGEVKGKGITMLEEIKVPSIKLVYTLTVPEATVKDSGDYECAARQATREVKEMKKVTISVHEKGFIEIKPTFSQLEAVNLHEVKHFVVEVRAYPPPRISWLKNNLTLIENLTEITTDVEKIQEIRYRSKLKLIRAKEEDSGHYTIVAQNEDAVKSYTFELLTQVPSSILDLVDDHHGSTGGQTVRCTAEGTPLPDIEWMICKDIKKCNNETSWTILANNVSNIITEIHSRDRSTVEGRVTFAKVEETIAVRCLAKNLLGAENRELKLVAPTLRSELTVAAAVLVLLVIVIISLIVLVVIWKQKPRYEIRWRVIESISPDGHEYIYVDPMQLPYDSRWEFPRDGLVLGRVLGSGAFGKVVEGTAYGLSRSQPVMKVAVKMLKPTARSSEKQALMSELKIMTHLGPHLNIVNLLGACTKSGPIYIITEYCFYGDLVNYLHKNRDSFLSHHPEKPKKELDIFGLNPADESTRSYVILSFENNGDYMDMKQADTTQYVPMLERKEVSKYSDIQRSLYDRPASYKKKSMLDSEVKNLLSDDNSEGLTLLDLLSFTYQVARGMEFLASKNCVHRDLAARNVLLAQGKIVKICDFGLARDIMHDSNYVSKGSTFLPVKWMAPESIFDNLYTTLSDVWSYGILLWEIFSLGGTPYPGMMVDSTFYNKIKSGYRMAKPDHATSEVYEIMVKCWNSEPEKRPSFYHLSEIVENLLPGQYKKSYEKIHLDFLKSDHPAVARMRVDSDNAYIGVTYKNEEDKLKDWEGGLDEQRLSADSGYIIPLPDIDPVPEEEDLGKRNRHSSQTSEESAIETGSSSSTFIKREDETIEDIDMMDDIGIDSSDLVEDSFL

MELK = MELK (Homo sapiens, UniProt Q14680)
CaMKI = target: T8, CaMKI (Homo sapiens, UniProt Q14012)
T8 construct: gene CAMK1

NLK = NLK (Homo sapiens, UniProt Q9UBE8)
MLK2 = target: T9, MLK2 (Homo sapiens, UniProt Q02779)
T9 construct: gene MAP3K10

MST3 = target: T10, MST3 (Homo sapiens, UniProt Q9Y6E0)
T10 construct: gene STK24
T10 sequence (Q9Y6E0 whole entry): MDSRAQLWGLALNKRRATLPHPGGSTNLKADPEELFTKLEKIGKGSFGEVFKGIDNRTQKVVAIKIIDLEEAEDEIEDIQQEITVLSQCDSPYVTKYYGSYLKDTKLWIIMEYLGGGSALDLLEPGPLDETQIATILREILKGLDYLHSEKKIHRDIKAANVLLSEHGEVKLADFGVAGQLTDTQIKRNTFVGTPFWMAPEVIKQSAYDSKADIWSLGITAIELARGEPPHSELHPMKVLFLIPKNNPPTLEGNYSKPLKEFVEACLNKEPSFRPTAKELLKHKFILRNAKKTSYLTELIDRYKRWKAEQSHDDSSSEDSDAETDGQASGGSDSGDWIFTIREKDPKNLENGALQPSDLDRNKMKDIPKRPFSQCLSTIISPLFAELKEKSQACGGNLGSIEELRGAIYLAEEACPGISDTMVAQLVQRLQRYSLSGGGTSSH

NEK4 = NEK4 (Homo sapiens, UniProt P51957)
NEK9 = NEK9 (Homo sapiens, UniProt Q8TD19)
Chain of NEK9 (Q8TD19 whole entry): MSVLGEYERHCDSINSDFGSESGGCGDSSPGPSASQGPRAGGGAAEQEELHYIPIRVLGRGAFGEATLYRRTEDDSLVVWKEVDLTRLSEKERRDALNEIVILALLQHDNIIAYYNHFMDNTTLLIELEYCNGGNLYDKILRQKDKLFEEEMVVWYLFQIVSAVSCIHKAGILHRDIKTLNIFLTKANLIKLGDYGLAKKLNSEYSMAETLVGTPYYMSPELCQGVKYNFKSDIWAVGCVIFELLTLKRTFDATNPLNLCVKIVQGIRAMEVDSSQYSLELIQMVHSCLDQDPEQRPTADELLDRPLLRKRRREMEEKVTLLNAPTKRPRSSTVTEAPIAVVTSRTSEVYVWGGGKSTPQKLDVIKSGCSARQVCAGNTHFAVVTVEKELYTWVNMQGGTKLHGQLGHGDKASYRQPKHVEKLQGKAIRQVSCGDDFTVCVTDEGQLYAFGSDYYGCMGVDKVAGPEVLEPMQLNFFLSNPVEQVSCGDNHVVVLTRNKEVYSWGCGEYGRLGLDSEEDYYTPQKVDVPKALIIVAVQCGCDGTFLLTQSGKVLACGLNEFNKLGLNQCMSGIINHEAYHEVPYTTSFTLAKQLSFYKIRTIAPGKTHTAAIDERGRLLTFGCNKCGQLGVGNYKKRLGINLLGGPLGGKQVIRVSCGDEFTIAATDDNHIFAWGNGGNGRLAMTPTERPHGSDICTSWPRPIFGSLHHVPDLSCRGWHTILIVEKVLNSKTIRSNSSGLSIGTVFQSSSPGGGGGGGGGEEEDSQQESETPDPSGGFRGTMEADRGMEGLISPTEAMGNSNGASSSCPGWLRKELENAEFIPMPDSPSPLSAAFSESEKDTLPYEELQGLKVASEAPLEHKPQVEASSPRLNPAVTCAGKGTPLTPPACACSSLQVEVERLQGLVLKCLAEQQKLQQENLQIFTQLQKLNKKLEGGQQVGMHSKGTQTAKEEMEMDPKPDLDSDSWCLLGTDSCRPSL

MKNK2 = MKNK2 (Homo sapiens, UniProt Q9HBH9)
MST4 = target: T11, MST4 (Homo sapiens, UniProt Q9P289)
T11 construct: gene STK26
T11 sequence (Q9P289 whole entry): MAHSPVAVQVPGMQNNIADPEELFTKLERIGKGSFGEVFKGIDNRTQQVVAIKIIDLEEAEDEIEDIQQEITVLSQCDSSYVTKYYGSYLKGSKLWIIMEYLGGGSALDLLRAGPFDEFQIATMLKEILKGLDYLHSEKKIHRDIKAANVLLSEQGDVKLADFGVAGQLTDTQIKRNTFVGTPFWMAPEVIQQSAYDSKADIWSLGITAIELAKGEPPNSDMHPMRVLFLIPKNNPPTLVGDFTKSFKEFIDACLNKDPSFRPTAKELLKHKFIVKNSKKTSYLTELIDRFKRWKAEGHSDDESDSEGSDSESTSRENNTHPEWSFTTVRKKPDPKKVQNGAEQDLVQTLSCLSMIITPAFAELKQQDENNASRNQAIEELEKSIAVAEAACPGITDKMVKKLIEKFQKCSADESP

EphA8 = EphA8 (Homo sapiens, UniProt P29322)
ACVR1B = ACVR1B (Homo sapiens, UniProt P36896)
Chain of ACVR1B (P36896 whole entry): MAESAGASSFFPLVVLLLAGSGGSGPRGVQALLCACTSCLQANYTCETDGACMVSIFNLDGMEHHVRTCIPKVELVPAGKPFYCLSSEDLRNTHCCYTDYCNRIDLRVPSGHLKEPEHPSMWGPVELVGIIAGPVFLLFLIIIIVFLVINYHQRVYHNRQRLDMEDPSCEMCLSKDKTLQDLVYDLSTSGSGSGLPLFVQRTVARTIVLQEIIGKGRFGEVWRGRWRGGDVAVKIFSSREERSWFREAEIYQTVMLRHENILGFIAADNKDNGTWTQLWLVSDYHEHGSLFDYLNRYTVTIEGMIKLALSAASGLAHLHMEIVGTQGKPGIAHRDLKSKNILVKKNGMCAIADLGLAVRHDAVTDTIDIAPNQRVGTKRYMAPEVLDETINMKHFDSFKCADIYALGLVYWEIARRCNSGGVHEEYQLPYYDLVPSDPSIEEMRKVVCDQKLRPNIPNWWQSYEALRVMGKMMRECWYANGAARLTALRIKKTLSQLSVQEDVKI

PhK_gamma2 = target: T12, PhK_gamma2 (Homo sapiens, UniProt P15735)
T12 construct: gene PHKG2

SMILES | inhibition at 1 µM (CLK2) | inhibition at 1 µM (TrkB) | inhibition at 1 µM (IGF1R) | inhibition at 1 µM (MST2) | inhibition at 1 µM (PDK1(direct)) | inhibition at 1 µM (CK1_gamma2) | inhibition at 1 µM (PKC_delta) | inhibition at 1 µM (IRR) | inhibition at 1 µM (CAMKK1) | inhibition at 1 µM (EphB3) | inhibition at 1 µM (SRPK1) | inhibition at 1 µM (HIPK2) | inhibition at 1 µM (PDGFR_alpha) | inhibition at 1 µM (MELK) | inhibition at 1 µM (CaMKI) | inhibition at 1 µM (NLK) | inhibition at 1 µM (MLK2) | inhibition at 1 µM (MST3) | inhibition at 1 µM (NEK4) | inhibition at 1 µM (NEK9) | also measured
CCOC(=O)Nc1cccc2c(Oc3ncccc3-c3ccnc(N[C@H]4CCCNC4)n3)c(C)ccc12 [G-1749] | 18.5% | 0.5% | 6.5% | 5.5% | 5% | -4.5% | 12% | -0.5% | 3.5% | 3% | 6.5% | 3% | -3.5% | 33% | -10% | 13% | 0.5% | -2% | 6% | -3% | inhibition at 1 µM (MKNK2): 3.5%; inhibition at 1 µM (MST4): -12.5%; inhibition at 1 µM (EphA8): 1.5%; inhibition at 1 µM (ACVR1B): 3%; inhibition at 1 µM (PhK_gamma2): 2.5%
CC#CC(=O)Nc1cccc2c(Oc3ncccc3-c3ccnc(N[C@H]4CCCNC4)n3)c(C)ccc12 [G-7658] | 23% | 0.5% | 5.5% | 2.5% | 3.5% | -4.5% | 15% | 0% | 5.5% | 4.5% | 5% | 2.5% | -0.5% | 19.5% | -2.5% | 19% | 4% | -8.5% | 5.5% | -0.5% | inhibition at 1 µM (MKNK2): -2%; inhibition at 1 µM (MST4): -3.5%; inhibition at 1 µM (EphA8): 6.5%; inhibition at 1 µM (ACVR1B): -0.5%; inhibition at 1 µM (PhK_gamma2): 4%
